In the NIST ThermoML archive (doi:10.1016/j.tca.2017.07.003) one finds Normal melting temperature data, which are given here for three molecules.

± gives the expanded uncertainty stated by the source.

The conditions of this data set: Crystal; DTA.
On to `CCCCNC(=O)c1cc(C(=O)NCCCC)cc(C(=O)NCCCC)c1` [N,N',N''-tributyl-1,3,5-benzenetricarboxamide], for which the Normal melting temperature is 229.00 ± 1 °C.

`CC(C)CNC(=O)c1cc(C(=O)NCC(C)C)cc(C(=O)NCC(C)C)c1` [N,N',N''-tris(2-methylpropyl)-1,3,5-benzenetricarboxamide]: the Normal melting temperature is 300.00 ± 1 °C.

For the molecule `CC(C)(C)NC(=O)c1cc(C(=O)NC(C)(C)C)cc(C(=O)NC(C)(C)C)c1` [N,N',N''-tris(tert-butyl)-1,3,5-benzenetricarboxamide], the Normal melting temperature was 304.00 ± 1 °C.
